Patent publication US8568801B2, “Solid oral sensorial products including stain inhibitor” (Philip Morris USA Inc., priority 2010, dated 2013)

Tests used:
[1] = Cow's teeth staining by extract of tea pouches, simulating 6 months of use; conditions: extract of pouches with 5.0 g tea and 50 mg sodium hexametaphosphate; 5 soaks of 7 minutes at about 100° F. with brushing; FIG. 9
Description: (§1) To determine the effectiveness of the phosphate containing stain inhibitor on oral sensorial products including tea, a test was performed to simulate 6 months of use of the oral sensorial products. About 187.5 mL artificial saliva and 75 pouches containing 5.0 g tea were placed in a bag in a water bath at 100° F. for 3 minutes. The artificial saliva was formed as part of a 1000 mL batch including 4.20 g sodium bicarbonate, 0.50 g sodium chloride and 0.20 g potassium carbonate. The bag was removed and rolled for about 2 minutes and then returned to the water bath for 10 minutes. This process was repeated four more times (five total). The pouches were then removed from the bag and 50 mL of the extract was placed in a 250 mL crystallization beaker. Cow's teeth were then immersed in the 50 mL of extract, the beaker was covered with polypropylene wrap, and the teeth were soaked for 7 minutes at about 100° F. The teeth were removed from the beaker and rinsed with reverse osmosis water for about 5 seconds. The front enamel of each tooth was brushed with 1 g of Crest® Cavity Protection toothpaste for 30 seconds, rinsed with reverse osmosis water and covered to prevent exposure to light. This regime was repeated 4 additional times (5 total). A second extract was made using pouches including 5.0 g tea and 50 mg sodium hexametaphosphate. […]

[2] = Hydroxyapatite powder soaked in Burley tobacco extract with various amounts of sodium hexametaphosphate; conditions: FIG. 13
Description: To determine the effect of various amount of sodium hexametaphosphate, 5.0 grams of Burley tobacco was soaked in 100 mL water at room temperature for 1 hour to form a first extract. A second extract was formed by soaking 5.0 grams of Burley tobacco and […] sodium hexametaphosphate in 100 mL water at room temperature for 1 hour. A third extract was formed by soaking 5.0 grams of Burley tobacco and 0.252 g sodium hexametaphosphate in 100 mL water at room temperature for 1 hour. A fourth extract was formed by soaking 5.0 grams of Burley tobacco and 0.047 g sodium hexametaphosphate in 100 mL water at room temperature for 1 hour. Each extract was then filtered through #2 Watman filter paper. Approximately […] of hydroxyapatite powder was placed in the bottom of each of four centrifuge vials. 14 mL of the first extract was placed in the first vial, 14 mL of the second extract was placed in the second vial, 14 mL of the third extract was placed in the third vial and 14 mL of the fourth extract was placed in the fourth vial. The powder in each vial was allowed to soak for about 1 hour with agitation and then the powder was decanted, washed in distilled water at least three times and decanted each time.

[3] = Hydroxyapatite powder washed in phosphate, then soaked in Burley tobacco extract; conditions: compared with unwashed HAP powder and with HAP powder first washed in dibasic sodium phosphate; FIG. 11
[4] = Cow's teeth staining by extract of Burley tobacco pouches; conditions: as printed, the tobacco-only tooth is the darker one; inhibitor extract from 50 mg sodium hexametaphosphate and 5.0 g Burley tobacco; 5 soaks; FIG. 10
Description: as §1, with “inhibitor on solid oral sensorial” for “inhibitor on oral sensorial”, “products including tobacco, 187.5 mL” for “products including tea, a test was performed to simulate 6 months of use of the oral sensorial products. About 187.5 mL”, “5.0 g Burley tobacco were placed” for “5.0 g tea were placed”, “of the Burley tobacco extract was” for “of the extract was”, “5.0 g Burley tobacco and 50” for “5.0 g tea and 50”

[5] = Hydroxyapatite powder soaked in tea extract; conditions: 5.0 g tea and 50 mg sodium hexametaphosphate in 100 mL water, room temperature, about 1 hour; FIG. 12
Description: A second extract was formed by soaking 5.0 g of tea in 100 mL water at room temperature for about 1 hour. Each extract was then filtered through #2 Watman filter paper. Approximately 152 mg of hydroxyapatite powder was placed in the bottom of each of two centrifuge vials. 14 mL of the first extract was placed in one vial and 14 mL of the second extract was placed in the second vial.

With O=P1([O-])OP(=O)([O-])OP(=O)([O-])OP(=O)([O-])OP(=O)([O-])OP(=O)([O-])O1.[Na+].[Na+].[Na+].[Na+].[Na+].[Na+] [sodium hexametaphosphate] the “color of cow's teeth exposed to sodium hexametaphosphate and tea compared with teeth exposed to tea alone” value [1] was “noticeably lighter in color”, the “color of powders soaked in extracts with larger amounts of sodium hexametaphosphate compared with smaller amounts” value ([2]; 25.080 g, 0.252 g and 0.047 g sodium hexametaphosphate with 5.0 g Burley tobacco in 100 mL water) was “lighter in color” and the “color of powder soaked in Burley tobacco extract alone compared with powders soaked in extracts including sodium hexametaphosphate” value ([2]; as printed, the tobacco-only powder is the darker one, 5.0 g Burley tobacco with 25.080 g, 0.252 g or 0.047 g sodium hexametaphosphate in 100 mL water) was “visibly darker”. The “color of HAP powder first washed in the phosphate and then soaked in Burley tobacco extract” value [3] was “visibly whiter”, the “color of cow's tooth soaked in Burley tobacco extract alone compared with tooth soaked in extract with sodium hexametaphosphate” value [4] was “visibly darker” and the “color of HAP powder soaked in extract of tea and sodium hexametaphosphate compared with tea alone” value [5] was “visibly whiter”.
